Values of other authors as cited in patent EP1543827A1, “EMULSION OF PERFLUORORGANIC COMPOUNDS EXHIBITING GAS-TRANSPORT PROPERTIES, A SURFACE-ACTIVE AGENT FOR SAID EMULSION AND METHOD FOR THE PRODUCTION THEREOF” (Obshestvo C Ogranichennoi Otvetstvennostiu Accent, priority 2002, dated 2004).

Conditions: in vivo

| Compound | period of PFOC semi-clearance out of the organism [days] |
| --- | --- |
| FC(F)(F)C1(F)C(F)(F)C(F)(F)C(F)(N2C(F)(F)C(F)(F)C(F)(F)C(F)(F)C2(F)F)C(F)(F)C1(F)F (centres unmarked) [PMCP, perfluoro-n-methylcyclohexylpiperidine] | 65 |
| perfluordecalin [PFD] | 7 |
